Publication PMC4404097, “The Inhibitory Effects of Ca^2+ Channel Blocker Nifedipine on Rat Kv2.1 Potassium Channels” (PLoS ONE, 2015)
Changes are numbered by the printed parent chain.

Key:
rat Kv2.1 [1] = molecular target: T1, rat Kv2.1 (Rattus norvegicus, UniProt P15387, Y380R); assay: whole-cell patch clamp, Hill fit of concentration-response; format: cell-based
T1 construct: gene Kcnb1; rat Kv2.1 subcloned in pEYFP-N1 (XhoI/EcoRI); homotetramer
T1 sequence (P15387 1-857 Y380R): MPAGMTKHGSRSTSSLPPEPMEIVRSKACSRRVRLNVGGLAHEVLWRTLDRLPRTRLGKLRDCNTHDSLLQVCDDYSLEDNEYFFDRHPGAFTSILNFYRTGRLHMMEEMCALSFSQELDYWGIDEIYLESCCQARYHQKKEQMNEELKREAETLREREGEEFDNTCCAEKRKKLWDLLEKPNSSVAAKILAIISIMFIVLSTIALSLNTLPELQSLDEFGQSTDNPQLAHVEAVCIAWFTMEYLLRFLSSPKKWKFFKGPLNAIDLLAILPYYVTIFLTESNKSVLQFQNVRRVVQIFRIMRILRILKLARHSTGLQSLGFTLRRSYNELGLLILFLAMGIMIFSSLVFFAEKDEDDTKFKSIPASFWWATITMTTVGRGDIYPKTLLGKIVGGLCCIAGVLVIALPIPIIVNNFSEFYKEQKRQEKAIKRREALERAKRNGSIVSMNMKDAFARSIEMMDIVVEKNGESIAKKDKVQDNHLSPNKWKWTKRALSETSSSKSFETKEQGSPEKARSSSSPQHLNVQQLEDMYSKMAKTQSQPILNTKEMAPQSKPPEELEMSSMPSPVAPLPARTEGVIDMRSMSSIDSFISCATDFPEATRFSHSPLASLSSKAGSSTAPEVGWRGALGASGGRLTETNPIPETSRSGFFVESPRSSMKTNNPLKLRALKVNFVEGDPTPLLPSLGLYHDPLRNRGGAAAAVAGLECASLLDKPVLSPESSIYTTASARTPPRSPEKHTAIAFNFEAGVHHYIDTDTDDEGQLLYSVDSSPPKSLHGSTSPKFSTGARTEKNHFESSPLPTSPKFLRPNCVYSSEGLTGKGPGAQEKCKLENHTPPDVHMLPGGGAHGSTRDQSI

rat Kv2.1 [2] = molecular target: T2, rat Kv2.1 (Rattus norvegicus, UniProt P15387); assay: as above; format: cell-based
T2 construct: gene Kcnb1; rat Kv2.1 subcloned in pEYFP-N1 (XhoI/EcoRI); homotetramer
T2 sequence (P15387 1-857): T1 sequence (P15387 1-857 Y380R) with R380Y

SMILES: COC(=O)C1=C(C)NC(C)=C(C(=O)OC)C1c1ccccc1[N+](=O)[O-] [nifedipine]
- IC50 (rat Kv2.1 [1]): 15.2 ± 1.3 µM
- IC50 (rat Kv2.1 [2]): 37.5 ± 5.7 µM
